# Results published in EP0288278B1, “Chemical derivatives of GHL-CU” (PROCYTE CORPORATION, priority 1987, dated 1994).
# System: incision wounds
# Assay: Wound healing of incision wounds in mice
# Type: in vivo
# Settings: incision wounds swabbed daily, scored after 5 days
# Description: In mice, incision wounds to the flanks (six 1.5 cm wounds per animal) were swabbed daily with either a solution containing GHL-Cu (100 micrograms per mL) in phosphate-buffered saline (PBS) or PBS alone (6 animals each group). After 5 days, the wounds were scored 1.0 for complete closure, 0.5 for partial closure, and 0.0 for non-closure.
row,Substance,healing of wounds in mice
1,glycyl-L-histidyl-L-lysine n-palmityl ester: copper (II),significantly enhances the wound-healing process
2,glycyl-L-histidyl-L-lysine n-stearyl ester: copper (II),significantly enhances the wound-healing process
